Calls of active or inactive are those of the source. No cut-off for these calls is given here.
Columns and labels:
RAW [1] = assay: Inhibition of lipopolysaccharide stimulated TNFalpha synthesis in mouse RAW 264.7 cells; type: functional, cell-based
MG-63 [2] = assay: Effect on osteocalcin secretion in human MG63 cells after 4 days; type: functional, cell-based
MG-63 [3] = assay: Effect on alkaline phosphatase activity in human MG63 cells at 100 ug/mL after 24 hrs; type: functional, cell-based
MG-63 [4] = assay: Cytotoxicity against human MG63 cells up to 1000 ug/ml after 48 hrs by MTT assay; type: functional, cell-based
MG-63 [5] = assay: Increase of collagen synthesis in human MG63 cells after 7 days; type: functional, cell-based
MG-63 [6] = assay: Increase in alkaline phosphatase activity in human MG63 cells at 5 ug/mL after 24 hrs; type: functional, cell-based
RAW [7] = assay: Reduction of lipopolysaccharide stimulated IL1-beta synthesis in mouse RAW 264.7 cells; type: functional, cell-based
RAW [8] = assay: Reduction of lipopolysaccharide stimulated PGE2 synthesis in mouse RAW 264.7 cells at 10 ug/mL; type: functional, cell-based
MG-63 [9] = assay: Increase of mineralization in human MG63 cells after 7 days; type: functional, cell-based
MG-63 [10] = assay: Increase in alkaline phosphatase activity in human MG63 cells after 24 hrs; type: functional, cell-based
MG-63 [11] = assay: Increase of collagen synthesis in human MG63 cells at 10 ug/mL relative to glucosamine; type: functional
MG-63 [12] = assay: Increase in alkaline phosphatase activity in human MG63 cells at 1000 ug/mL after 24 hrs; type: functional, cell-based

N[C@@H]1[C@@H](O)[C@H](O)[C@@H](CO)O[C@H]1O
Activity (RAW [1]): Active
Activity (MG-63 [2]): Dose-dependent effect
Activity (MG-63 [3]): inactive

N[C@@H]1[C@@H](O)[C@H](O)[C@@H](COS(=O)(=O)O)O[C@H]1O
Activity (MG-63 [4]): Not toxic
Activity (MG-63 [5]): Dose-dependent effect
Activity (MG-63 [6]): Active
Activity (RAW [1]): Active
Activity (MG-63 [2]): Dose-dependent effect
Activity (RAW [7]): Active
Activity (RAW [8]): Active
Activity (MG-63 [9]): Active
Activity (MG-63 [10]): Dose-dependent effect
Fold change (MG-63 [11]): 3
Activity (MG-63 [12]): inactive
